Data on one compound can be found in patent publication US10758541B2, “Formulations of milciclib and therapeutic combinations of the same for use in the treatment of cancer” (Tiziana Life Sciences PLC, priority 2017, dated 2020).

The term IC50 denotes the concentration needed to halve the response being measured.

Data set [1] has as its system MHCC97L cells. As to the kind of experiment: IC50 values by cell proliferation assay (WST-1). Type of data set: cell-based. Particulars: Homo sapiens, individual inhibitor, 72 hours. From the text:
See Shailubhai, K et al. “Atiprimod is an inhibitor of cancer cell proliferation and angiogenesis.” J Exp Ther Oncol. 2004; 4: 267-279; and Choudhari et al. “Deactivation of Akt and STAT3 signaling promotes apoptosis, inhibits proliferation, and enhances the sensitivity of hepatocellular carcinoma cells to an anticancer agent, atiprimod” Molecular Cancer Therapeutics. 2007; 6: 112-121. References are incorporated herein in their entireties.
MHCC97H and MHCC97L (highly metastatic hepatocellular carcinoma cell line, derived from humans)
Cells (MHCC97H, MHCC97L, and HepG2.2.15) were cultured for 24 hours in 2% FBS and then were trypsinized, resuspended in 2% FBS and seeded in a rat collagen coated 96-well plate at a density of 10,000 cells/100 μl/well, a day before the experiment and cultured at 37° C. in 5% CO2. The cells were treated the next day with milciclib, sorafenib, regorafenib, sunitinib, and lenvatinib, individually or in combination in DMEM/F12+2% FBS+for 72 hours prior to the addition of WST-1 reagent. About 100 μL media was added to control well. After cells had been cultured for 72 hours with different drug concentrations, cells were washed 3 times with sterile 1× Phosphate buffered saline (PBS). To determine cell proliferation by the colorimetric test, 10 μL of WST-1 reagent (Sigma Aldrich, St Louis, Mo.) was added in 100 μL cell culture media and incubated for 2 hours in 5% CO2 at 37° C. At the end of incubation period, the plate was placed on a plate shaker for 1 minute and was monitored using a spectrophotometer at an optical density of 450 nm with a reference wavelength of 600 nm using Tecan F200 and iControl software. IC50 values were determined using GraphPad Prism (GraphPad Software, La Jolla, Calif.). Each experiment was performed in duplicate and repeated 2 times.
On the technique in general: Formazan colour is commonly taken as a measure of viable cells.

The subject of a further data set is Alphafetoprotein (AFP). The data set is described as follows: AFP ELISA assay in MHCC97H cells. Type of data set: cell-based, human. Particulars: 1.3 μM, 72 hours, vs vehicle control. The protocol: (§1) MHCC97H cells were seeded at a density of 500,000 cells/2 mL/well on a 6 well culture plate and incubated overnight at 37° C. in a humidified CO2 incubator. Cells were then treated with 1.3 μM milciclib or vehicle in DMEM/F12+2% FBS for 72 hours. Subsequently, cells were lysed in RIPA buffer, the supernatant was collected and used to perform ELISA assay as per the manufacturer's instructions. In orthotopic HCC mouse model, levels of serum marker alpha-fetoprotein (AFP) were determined on day 0, 6, 12, 18, 24, 30, 36, 42 and 48 using High Range AFP kit as per manufacturer's instructions.
For orientation: In an ELISA, binding on a coated surface is turned into a signal by an enzyme label.

Another data set deals with MHCC97H cells. The data set is described as follows: EMT transwell invasion assay. The data set is classed as cell-based, human. Particulars: agent alone, 10 days, P<0.05. The protocol:
(§2) EMT (Epithelial to Mesenchymal Transition) induction employing kit from R&D systems (Cat # CCM017)
(§3) For transwell invasion assay HCC cells were seeded in the top chamber in 6 well transwell plates (Sigma-Aldrich, St. Louis, Mo.) at a density of 100,000 cells/500 μL/well in standard culture media containing 100× StemXVivo® EMT Inducing Media Supplement (R&D systems, Minneapolis, Minn.) and was incubated overnight at 37° C. in humidified CO2 incubator. Next day, EMT inducing media with or without the test articles was added and incubation was continued for 10 days with media changes every 3 days. On the 10th day, the number of cells migrated to the lower chamber was determined using Bio-Rad (Hercules, Calif.) automatic cell counter. Values obtained were expressed as a percentage of invasion and the cell counts of control cells were considered 100%.
(§4) The invasive potential of cancer cells is dependent on losing epithelial characteristics and acquiring a migratory mesenchymal property referred to as Epithelial to Mesenchymal Transition (EMT).

For data set [2], the system named is MHCC97L cells. The data set is described as follows: EMT transwell invasion assay. The data set is classed as cell-based, human. Particulars: agent alone, 10 days, P<0.05. The protocol:
as §2, §3, §4

In the next data set the test system is alpha-fetoprotein (AFP). As to the kind of experiment: Serum AFP in orthotopic HCC mouse model. The data set is classed as in vivo, mice. Particulars: milciclib 30 mg/kg, sorafenib 20 mg/kg, oral, vs vehicle. The protocol: as §1
Mouse experiments were performed in accordance with the guidelines approved by the Institutional Animal Care and use committee of Washington Biotechnology Inc (Baltimore, Md.) where the studies were conducted. (FIG. 66) Test agents were dissolved in chremophor/ethanol (1:1) to make a 5× stock solution and diluted in water when used. MHCC97H human liver cells (5×106) in PBS were mixed with 20% Matrigel and then inoculated orthotopically into the right flank of female Balb/c nude mice. Seven days after cell inoculation, the mice were randomly allocated to either the treatment group (n=12) or the control group (n=12) based on the levels of AFP. The daily animal inspection was conducted for general appearance and tumor growth. […]

The test system of the next data set is miR-221 and miR-222. As to the kind of experiment: miRNA isolation and expression analysis of tumor tissues. The data set is classed as in vivo. Particulars: tumor tissues from orally treated mice, vs vehicle. The protocol: miRNA from athymic nude mice following treatment with vehicle, milciclib, sorafenib, or milciclib+sorafenib was isolated from Total RNA using the TaqMan Advanced miRNA cDNA Synthesis Kit (Thermo Fisher Scientific, Rockford, Ill.) according to the manufacturer's instructions. miRNA-221 and miR-222 quantifications were performed in duplicates using TaqMan Advanced miRNA Assay (Thermo Fisher Scientific, Rockford, Ill.) with a sample dilution of 1:10. The PCR mixture was incubated at 95° C. for 20 seconds, followed by 40 cycles of 95° C. for 3 seconds and 60° C. for 30 seconds. Results were normalized to hsa-miR-192-5p as reference miRNA and the relative gene expression calculated as 2−ΔCT was expressed as fold increase over control samples.
Tumor tissues from mice treated with vehicle, sorafenib, milciclib, milciclib+sorafenib and normal liver tissues from naïve untreated mice were collected and levels of miR-221 and miR-222 were determined. The levels of both of miR-221 and miR-222 were elevated in tumors from vehicle treated mice.

The conditions of data set [3]: phase I, cited from earlier work.

For the compound `CNC(=O)c1nn(C)c2c1C(C)(C)Cc1cnc(Nc3ccc(N4CCN(C)CC4)cc3)nc1-2` [MILCICLIB, N,1,4,4-tetramethyl-8-((4-(4-methylpiperazin-1-yl)phenyl)amino)-4,5-dihydro-1H-pyrazolo[4,3-h]quinazoline-3-carboxamide], the IC50 in the data set on MHCC97L cells [1] turned out to be 1000 nM. Also, in the data set on Alphafetoprotein (AFP), the AFP levels entry is given as “Appreciably lower”. In addition, the “cell migration (EMT assay)” value with MHCC97H cells and with MHCC97L cells [2] was “statistically significant inhibition” throughout. In addition, in the data set on alpha-fetoprotein (AFP), the “serum AFP levels” value is “Significantly lower”. The “expression of miR-221 and miR-222” value in the data set on miR-221 and miR-222 is reported as “significantly reduced”. Besides, in data set [3] (oral treatment, patients with advanced solid malignancies), the tolerability entry is reported as “well-tolerated”. Moreover, in data set [3] (oral), the RP2D is given as 150 mg/day. The major toxicity profile entry in data set [3] (reversible upon treatment suspension) was “tremors and gastrointestinal toxicity”.
